Reference: PMC6979384, “Characterization of the plant homeodomain (PHD) reader family for their histone tail interactions” (Epigenetics & Chromatin, 2020)

How the values were obtained:
Test in all cases: Histone peptide microarray
Assay type in all cases: binding, human
AIRE (PP) = details: GST-tagged AIRE (PP); sheet Array Heatmap; each array performed twice, total n = 4
Method in brief: (§1)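 Binding read as mean relative signal from 4 replicates; microarray held 293 synthetic histone peptides with single or combinatorial PTMs. Each GST-tagged PHD reader was applied at 0.5 μM using the optimized Petell protocol.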

BPTF (PB) = details: GST-tagged BPTF (PB = PHD + Bromodomain); sheet Array Heatmap; each array performed twice, total n = 4
Method in brief: as §1

CHD4 (PPCC) = details: for Array Heatmap signal (histone peptide microarray): GST-tagged CHD4 (PPCC = Dual PHD + Dual Chromodomain), sheet Array Heatmap, each array performed twice, total n = 4
Method in brief: as §1

CHD5 (PPCC) = details: GST-tagged CHD5 (PPCC = Dual PHD + Dual Chromodomain); sheet Array Heatmap; each array performed twice, total n = 4
Method in brief: as §1

DIDO1 = details: GST-tagged DIDO1; sheet Array Heatmap; each array performed twice, total n = 4
Method in brief: as §1

DPF2 (PPC2W2) = details: GST-tagged DPF2 (PPC2W2 = Dual PHD + C2W2-type Zn-finger); sheet Array Heatmap; each array performed twice, total n = 4
Method in brief: as §1

ING1 = details: GST-tagged ING1; sheet Array Heatmap; each array performed twice, total n = 4
Method in brief: as §1

ING3 = details: GST-tagged ING3; sheet Array Heatmap; each array performed twice, total n = 4
Method in brief: as §1

ING4 = details: GST-tagged ING4; sheet Array Heatmap; each array performed twice, total n = 4
Method in brief: as §1

KDM4C (TTP) = details: GST-tagged KDM4C (TTP = Tandem Tudor domain + PHD); sheet Array Heatmap; each array performed twice, total n = 4
Method in brief: as §1

KDM5A (1) = details: GST-tagged KDM5A (1); sheet Array Heatmap; each array performed twice, total n = 4
Method in brief: as §1

KDM5A (3) = details: GST-tagged KDM5A (3); sheet Array Heatmap; each array performed twice, total n = 4
Method in brief: as §1

KDM5B (3) = details: GST-tagged KDM5B (3); sheet Array Heatmap; each array performed twice, total n = 4
Method in brief: as §1

KDM7A = details: GST-tagged KDM7A; sheet Array Heatmap; each array performed twice, total n = 4
Method in brief: as §1

MLL5 = details: GST-tagged MLL5; sheet Array Heatmap; each array performed twice, total n = 4
Method in brief: as §1

MORC3 (CW) = details: GST-tagged MORC3 (CW = CW-type Zn-finger); sheet Array Heatmap; each array performed twice, total n = 4
Method in brief: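 Purified PHD finger domains fused to GST are screened against 293 synthetic histone peptides bearing one or several post-translational modifications. The protein is used at 0.5 μM, and the signal from four replicate arrays is averaged, with standard deviation given.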

PHF13 = details: GST-tagged PHF13; sheet Array Heatmap; each array performed twice, total n = 4
Method in brief: as §1

PHF21A = details: GST-tagged PHF21A; sheet Array Heatmap; each array performed twice, total n = 4
Method in brief: as §1

PHF23 = details: GST-tagged PHF23; sheet Array Heatmap; each array performed twice, total n = 4
Method in brief: as §1

PHF2 = details: GST-tagged PHF2; sheet Array Heatmap; each array performed twice, total n = 4
Method in brief: as §1

PHF8 = details: GST-tagged PHF8; sheet Array Heatmap; each array performed twice, total n = 4
Method in brief: as §1

PHRF1 (RP) = details: GST-tagged PHRF1 (RP); sheet Array Heatmap; each array performed twice, total n = 4
Method in brief: as §1

RAG2 = details: GST-tagged RAG2; sheet Array Heatmap; each array performed twice, total n = 4
Method in brief: as §1

SP140L = details: GST-tagged SP140L; sheet Array Heatmap; each array performed twice, total n = 4
Method in brief: as §1

TAF3 = details: GST-tagged TAF3; sheet Array Heatmap; each array performed twice, total n = 4
Method in brief: as §1

TRIM66 (PB) = details: GST-tagged TRIM66 (PB = PHD + Bromodomain); sheet Array Heatmap; each array performed twice, total n = 4
Method in brief: as §1

Substance	Array Heatmap signal (histone peptide microarray) (AIRE (PP))	Array Heatmap signal (histone peptide microarray) (BPTF (PB))	Array Heatmap signal (histone peptide microarray) (CHD4 (PPCC))	Array Heatmap signal (histone peptide microarray) (CHD5 (PPCC))	Array Heatmap signal (histone peptide microarray) (DIDO1)	Array Heatmap signal (histone peptide microarray) (DPF2 (PPC2W2))	Array Heatmap signal (histone peptide microarray) (ING1)	Array Heatmap signal (histone peptide microarray) (ING3)	Array Heatmap signal (histone peptide microarray) (ING4)	Array Heatmap signal (histone peptide microarray) (KDM4C (TTP))	Array Heatmap signal (histone peptide microarray) (KDM5A (1))	Array Heatmap signal (histone peptide microarray) (KDM5A (3))	Array Heatmap signal (histone peptide microarray) (KDM5B (3))	Array Heatmap signal (histone peptide microarray) (KDM7A)	Array Heatmap signal (histone peptide microarray) (MLL5)	Array Heatmap signal (histone peptide microarray) (MORC3 (CW))	Array Heatmap signal (histone peptide microarray) (PHF13)	Array Heatmap signal (histone peptide microarray) (PHF21A)	Array Heatmap signal (histone peptide microarray) (PHF23)	Array Heatmap signal (histone peptide microarray) (PHF2)	further results
H3S10p: H3 1-20 [Peptide H3S10p]	0.7118	0.3684	0.6003	0.5995	0.6622	0.7013	0.5325	0.4878	0.4889	0.5402	0.5146	0.4717	0.5217	0.4084	0.5416	0.4872	0.646	0.5054	0.5413	0.4863	Array Heatmap signal (histone peptide microarray) (PHF8): 0.4129; Array Heatmap signal (histone peptide microarray) (PHRF1 (RP)): 0.5714; Array Heatmap signal (histone peptide microarray) (RAG2): 0.2741; Array Heatmap signal (histone peptide microarray) (SP140L): 0.3768; Array Heatmap signal (histone peptide microarray) (TAF3): 0.3504; Array Heatmap signal (histone peptide microarray) (TRIM66 (PB)): 0.7641
H3K9me3: H3 1-20 [Peptide H3K9me3]	0.4645	0.3464	0.5917	0.5526	0.7537	0.7027	0.5591	0.491	0.4493	0.4665	0.4576	0.563	0.5156	0.3458	0.5674	0.4553	0.6291	0.4617	0.5665	0.5168	relative binding (CHD4 (PPCC); peptide microarray, reader 0.5 μM, n = 4): no difference in binding; Array Heatmap signal (histone peptide microarray) (PHF8): 0.3233; Array Heatmap signal (histone peptide microarray) (PHRF1 (RP)): 0.7596; Array Heatmap signal (histone peptide microarray) (RAG2): 0.2542; Array Heatmap signal (histone peptide microarray) (SP140L): 0.3305; Array Heatmap signal (histone peptide microarray) (TAF3): 0.2799; Array Heatmap signal (histone peptide microarray) (TRIM66 (PB)): 0.7052
